# From patent publication US4656165A, “Aminomethyl penem compounds” (priority 1983, dated 1987)
# Key:
# [1] = target: T1, dehydropeptidase from human kidneys (Homo sapiens, UniProt P16444); assay: Stability towards the enzyme dehydropeptidase from human kidneys; assay type: in vitro ADME; settings: for half-life: renal dehydropeptidase, enzyme dehydropeptidase from human kidneys, read-out: t1/2 (half-life period), stability towards dehydropeptidase (converted); for half-life period under the action of renal dehydropeptidase compared with compound B: comparison with the racemate compound B, in words
# T1 construct: dehydropeptidase from human kidneys; from tissue; host or cells: human kidneys
# T1 sequence (P16444 17-411): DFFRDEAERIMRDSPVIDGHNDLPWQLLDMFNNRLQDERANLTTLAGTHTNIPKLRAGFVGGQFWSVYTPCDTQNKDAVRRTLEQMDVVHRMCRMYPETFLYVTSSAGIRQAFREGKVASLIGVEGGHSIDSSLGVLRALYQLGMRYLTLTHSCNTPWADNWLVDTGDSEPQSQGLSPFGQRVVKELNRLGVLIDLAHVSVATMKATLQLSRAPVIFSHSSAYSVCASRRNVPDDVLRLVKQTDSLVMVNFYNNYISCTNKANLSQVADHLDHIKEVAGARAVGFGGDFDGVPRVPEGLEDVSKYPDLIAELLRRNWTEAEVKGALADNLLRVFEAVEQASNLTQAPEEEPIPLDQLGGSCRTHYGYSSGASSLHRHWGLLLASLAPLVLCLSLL
# Source text: The stability of compounds A, B and C towards the enzyme dehydropeptidase from human kidneys is as follows (expressed in half-life periods t1/2): […]
# [2] = tested on: Pseudomonas aeruginosa ATCC 12055; assay: Antibiotic activity in vitro (MIC); assay type: cell-based; settings: ATCC12055
# [3] = tested on: Streptococcus pyogenes Aronson 1129; assay: Antibiotic activity in vitro (MIC); assay type: cell-based; settings: ARONSON1129
# [4] = tested on: Escherichia coli 16; assay: Antibiotic activity in vitro (MIC); assay type: cell-based
# [5] = tested on: Clostridium perfringens; assay: microbe, parasite or virus in culture; assay type: cell-based; settings: read-out: in vitro MIC
# [6] = tested on: Bacteroides fragilis L 01; assay: Antibiotic activity in vitro (MIC); assay type: cell-based; settings: L01
# [7] = tested on: Neisseria gonorrhoeae 1317/4; assay: Antibiotic activity in vitro (MIC); assay type: cell-based
# [8] = tested on: Proteus morganii 2359; assay: Antibiotic activity in vitro (MIC); assay type: cell-based; settings: Morganella morganii
# [9] = tested on: Enterobacter cloacae ATCC 13047; assay: Antibiotic activity in vitro (MIC); assay type: cell-based; settings: ATCC13047
# [10] = tested on: Escherichia coli B-1385; assay: Antibiotic activity in vitro (MIC); assay type: cell-based; settings: B1385
# [11] = tested on: Haemophilus influenzae NCTC 4560; assay: Antibiotic activity in vitro (MIC); assay type: cell-based; settings: NCTC4560
# [12] = tested on: Escherichia coli 205; assay: Antibiotic activity in vitro (MIC); assay type: cell-based
# [13] = tested on: Proteus mirabilis 774; assay: Antibiotic activity in vitro (MIC); assay type: cell-based
# [14] = tested on: Pseudomonas aeruginosa K 799/61; assay: Antibiotic activity in vitro (MIC); assay type: cell-based; settings: K799/61, read-out: in vitro MIC
# [15] = tested on: Escherichia coli 2018; assay: Antibiotic activity in vitro (MIC); assay type: cell-based
# [16] = tested on: Proteus mirabilis 1219; assay: Antibiotic activity in vitro (MIC); assay type: cell-based
# [17] = tested on: Proteus morganii 1518; assay: Antibiotic activity in vitro (MIC); assay type: cell-based; settings: Morganella morganii
# [18] = tested on: Neisseria meningitidis 1316; assay: Antibiotic activity in vitro (MIC); assay type: cell-based
# [19] = tested on: Staphylococcus aureus 2999i+p+; assay: Antibiotic activity in vitro (MIC); assay type: cell-based
# [20] = tested on: Escherichia coli 205 R + TEM; assay: Antibiotic activity in vitro (MIC); assay type: cell-based; settings: read-out: in vitro MIC
# [21] = tested on: Proteus rettgeri 856; assay: Antibiotic activity in vitro (MIC); assay type: cell-based; settings: Providencia rettgeri
# [22] = tested on: Escherichia coli UB 1005; assay: Antibiotic activity in vitro (MIC); assay type: cell-based; settings: UB1005
# [23] = tested on: Klebsiella pneumoniae 327; assay: Antibiotic activity in vitro (MIC); assay type: cell-based
# [24] = tested on: Staphylococcus aureus 10 B; assay: Antibiotic activity in vitro (MIC); assay type: cell-based
# [25] = tested on: Staphylococcus aureus Wood 46; assay: Antibiotic activity in vitro (MIC); assay type: cell-based; settings: WOOD46
# [26] = tested on: Escherichia coli DC 2; assay: Antibiotic activity in vitro (MIC); assay type: cell-based; settings: DC2
# [27] = tested on: Pseudomonas aeruginosa 143738R; assay: Antibiotic activity in vitro (MIC); assay type: cell-based
# [28] = tested on: Serratia marcescens 344; assay: Antibiotic activity in vitro (MIC); assay type: cell-based
# [29] = tested on: Streptococcus pneumoniae III/84; assay: Antibiotic activity in vitro (MIC); assay type: cell-based
# [30] = tested on: Enterobacter cloacae P 99; assay: Antibiotic activity in vitro (MIC); assay type: cell-based; settings: P99, read-out: in vitro MIC
# [31] = tested on: Staphylococcus aureus A 124; assay: Antibiotic activity in vitro (MIC); assay type: cell-based; settings: A124
SMILES,MIC [2],MIC [3],MIC [4],MIC [5],MIC [6],MIC [7],MIC [8],MIC [9],MIC [10],MIC [11],MIC [12],MIC [13],MIC [14],MIC [15],MIC [16],MIC [17],MIC [18],MIC [19],MIC [20],MIC [21],also measured
"C[C@@H](O)[C@H]1C(=O)N2C(C(=O)O)=C(CN)S[C@H]12 (relative stereo) [compound B, (1'R,5R,6S+1'S,5S,6R)-2-aminomethyl-6-(1'hydroxyethyl) -2-penem-3-carboxylic acid, reference compound]",0.1 mg/L,0.5 mg/L,8 mg/L,4 mg/L,1 mg/L,1 mg/L,2 mg/L,16 mg/L,8 mg/L,2 mg/L,8 mg/L,4 mg/L,0.2 mg/L,4 mg/L,8 mg/L,4 mg/L,1 mg/L,0.2 mg/L,8 mg/L,1 mg/L,half-life [1]: 2.2 h; MIC [22]: 16 mg/L; MIC [23]: 4 mg/L; MIC [24]: 0.1 mg/L; MIC [25]: 0.1 mg/L; MIC [26]: 16 mg/L; MIC [27]: 2 mg/L; MIC [28]: 8 mg/L; MIC [29]: 0.2 mg/L; MIC [30]: 8 mg/L; MIC [31]: 0.2 mg/L
"C[C@@H](O)[C@H]1C(=O)N2C(C(=O)O)=C(CN)S[C@H]12 [compound A, (5R,6S)-2-aminomethyl-6-[(1'R)-1-hydroxyethyl]-2-penem-3-carboxylic acid]",0.05 mg/L,0.2 mg/L,4 mg/L,2 mg/L,0.5 mg/L,0.5 mg/L,0.5 mg/L,4 mg/L,4 mg/L,1 mg/L,2 mg/L,1 mg/L,0.1 mg/L,2 mg/L,2 mg/L,2 mg/L,0.5 mg/L,0.05 mg/L,4 mg/L,0.5 mg/L,half-life period under the action of renal dehydropeptidase compared with compound B [1]: considerably greater half-life period; MIC [22]: 4 mg/L; MIC [23]: 2 mg/L; MIC [24]: 0.05 mg/L; MIC [25]: 0.05 mg/L; MIC [26]: 8 mg/L; MIC [27]: 0.5 mg/L; MIC [28]: 4 mg/L; MIC [29]: 0.1 mg/L; MIC [30]: 4 mg/L; MIC [31]: 0.1 mg/L
"NCC1=C(C(=O)O)N2C(=O)[C@H](CO)[C@H]2S1 [compound C, (5R,6S)-2-aminomethyl-6-hydroxymethyl-2-penem-3-carboxylic acid]",0.2 mg/L,2 mg/L,2 mg/L,32 mg/L,2 mg/L,1 mg/L,1 mg/L,4 mg/L,2 mg/L,1 mg/L,1 mg/L,1 mg/L,0.5 mg/L,1 mg/L,4 mg/L,2 mg/L,1 mg/L,0.5 mg/L,2 mg/L,0.5 mg/L,half-life period under the action of renal dehydropeptidase compared with compound B [1]: considerably greater half-life period; half-life [1]: 5.5 h; MIC [22]: 2 mg/L; MIC [23]: 1 mg/L; MIC [24]: 0.2 mg/L; MIC [25]: 0.2 mg/L; MIC [26]: 4 mg/L; MIC [27]: 2 mg/L; MIC [28]: 2 mg/L; MIC [29]: 0.5 mg/L; MIC [30]: 4 mg/L; MIC [31]: 1 mg/L
